The record followed here is US11110102B2, “Antifungal agents used in combination” (Scynexis, Inc., priority 2017, dated 2021).

Data set [1] has as its system NIH Aspergillus fumigatus isolate 4215. Description: Neutropenic rabbit model of invasive pulmonary aspergillosis (New Zealand White rabbits). It is filed as in vivo. As to conditions: intravenously once daily. The method, then: A study was conducted to evaluate the efficacy of the combination of SCY-078 with isavuconazole. Isavuconazole is a second generation antifungal triazole with activity against Aspergillus spp. As described above, invasive pulmonary aspergillosis is a life-threatening infection in immunosuppressed patients—particularly those with severe and prolonged neutropenia as a consequence of myelotoxic chemotherapy for the treatment of cancer, and those receiving immunosuppressive medication for rejection prophylaxis after organ transplantation or treatment of graft-versus-host disease (GVHD) after allogeneic bone marrow transplantation. A neutropenic rabbit model was selected for this in vivo evaluation to further illustrate the effect of the combination therapy of SCY-078 and an azole, in a relevant immunosuppressed population.
New Zealand White rabbits weighing 2.5 to 3.5 kg (Covance Research Products, Inc., Denver, Pa.) were used in this study. Vascular access was established by the surgical placement of a silastic tunneled central venous catheter. Cytosine arabinoside (Cytosar-U) 525 mg/m^2 was administered intravenously on days 1 through 5, and on days 8, 9, 13 and 14 to produce profound and persistent neutropenia (a neutrophil concentration of <100 neutrophils/μL). Methylprednisolone (Solu-Medrol®, Pfizer, NY) 5 mg/kg was administered on days 1 through 3 to inhibit macrophage activity. […]
Survival, pulmonary infarct, and galactomannan antigenemia (a serological marker of Aspergillus infection) were evaluated as indicators of treatment response. […] Serum galactomannan concentrations were determined by the Platelia® Aspergillus enzyme immunoassay (EIA) (Bio-Rad, Marnes-la-Coquette, France) one-stage immunoenzymatic sandwich microplate assay method. Enzyme immunoassay data were expressed as a serum GMI (galactomannan index) plotted over time.

Another data set in a line: Solubility in water. It is filed as physicochemical. From the text:
Each drug was initially diluted in either sterile, distilled water or in DMSO, depending on whether the drug was water-soluble or water-insoluble, respectively.

For `C[C@@H](c1nc(-c2ccc(C#N)cc2)cs1)[C@](O)(Cn1cncn1)c1cc(F)ccc1F` [Isavuconazole, isavuconazole], the “survival rate up to day 13” value in data set [1] (ISA40: isavuconazole 40 mg/kg/day alone, 2 out of 6) turned out to be 32%.

On to `CC(C)[C@@H](C)[C@@]1(C)CC[C@]2(C)[C@H]3CC[C@@H]4[C@@]5(COC[C@@]4(C)[C@@H](OC[C@](C)(N)C(C)(C)C)[C@H](n4ncnc4-c4ccncc4)C5)C3=CC[C@@]2(C)[C@@H]1C(=O)O` [SCY-078, (1S,4aR,6aS,7R,8R,10aR,10bR,12aR,14R,15R)-15-[[(2R)-2-amino-2,3,3-trimethylbutyl]oxy]-8-[(1R)-1,2-dimethylpropyl]-14-[5-(4-pyridinyl)-1H-1,2,4-triazol-1-yl]-1,6,6a,7,8,9,10,10a,10b,11,12,12a-dodecahydro-1,6a,8,10a-tetramethyl-4H-1,4a-propano-2H-phenanthro[1,2-c]pyran-7-carboxylic acid], for which, in data set [1] (SCY2.5: SCY-078 2.5 mg/kg/day alone, 1 out of 6), the “survival rate up to day 13” value stood at 16%. Also, in data set [1] (SCY7.5: SCY-078 7.5 mg/kg/day alone, six per group), the “survival until day 13” value was “no animals surviving until day 13”. Moreover, the Solubility in water result in the data set “Solubility in water” is “not soluble in water”.
